Measured values from patent US20250295646A1, “METHODS OF USE OF T-TYPE CALCIUM CHANNEL MODULATORS” (Praxis Precision Medicines, Inc., priority 2022, published 2025).

Test system: adult patients with essential tremor
Assay: Example 16: video-reviewed TETRAS performance subscale and upper limb score; as to TETRAS Performance Subscale Total Score by Video Review, Change from Baseline, Mean (SD): test concentration or dose not given here; as to TETRAS Performance Subscale Total Score by Video Review, Change from Baseline, Median: test concentration or dose not given here; as to TETRAS Performance Subscale Total Score by Video Review, Mean (SD): test concentration or dose not given here; as to TETRAS Performance Subscale Total Score by Video Review, Median: test concentration or dose not given here
Assay type: in vivo, human
Text: Video-reviewed TETRAS Analyses Video reviewed TETRAS assessments were generally consistent with those conducted at the clinic. Video reviewed TETRAS performance subscale total scores are summarized for Part A, the open-label titration phase of Part B, and the randomized withdrawal phase of Part B in Table 42, Table 43, and Table 44.
Video reviewed upper limb score values were generally consistent with those conducted at the clinic and are summarized for Part A, the open-label titration phase of Part B, and the randomized withdrawal phase of Part B in Table 45, Table 46, and Table 47, respectively.

[1] = Day 21, Part B Open-Label Titration Phase (N = 17)
[2] = Day 21, Part B, Formula (I) arm (N = 6)
[3] = Day 42 6 hours Post - dose (Randomization Baseline), Part B, Formula (I) arm (N = 6)
[4] = Day 42, 6 hours Post - dose, Part B Open-Label Titration Phase (N = 17)
[5] = Day 42, 6 hours Post - dose, Part B, Formula (I) arm (N = 6)
[6] = Day 42, Pre - dose, Part B Open-Label Titration Phase (N = 17)
[7] = Day 42, Pre - dose, Part B, Formula (I) arm (N = 6)
[8] = Day 56, Part B, Formula (I) arm (N = 6)
[9] = Day 70, Part B, Formula (I) arm (N = 6)

SMILES: CC(C)(C)NC(=O)CN1CCC(CNC(=O)c2cc(F)cc(Cl)c2)CC1 [compound of formula (I), N-((1-(2-(tert-butylamino)-2-oxoethyl)piperidin-4-yl)methyl)-3-chloro-5-fluorobenzamide]
- TETRAS Upper Limb Score by Video Review, Mean (SD) [1]: 9.63 (2.478)
- TETRAS Upper Limb Score by Video Review, Median [1]: 10.00
- TETRAS Upper Limb Score by Video Review, Percentage Change from Baseline in Tremor Amplitude, Mean (SD) [1]: −9.74 (24.458) %
- TETRAS Upper Limb Score by Video Review, Percentage Change from Baseline in Tremor Amplitude, Median [1]: −9.15%
- TETRAS Performance Subscale Total Score by Video Review, Change from Baseline, Mean (SD) [2]: 0.08 (2.396)
- TETRAS Performance Subscale Total Score by Video Review, Change from Baseline, Median [2]: 0.50
- TETRAS Performance Subscale Total Score by Video Review, Mean (SD) [2]: 22.42 (3.277)
- TETRAS Performance Subscale Total Score by Video Review, Median [2]: 22.00
- TETRAS Performance Subscale Total Score by Video Review, Percentage Change from Baseline in Tremor Amplitude, Mean (SD) [2]: 0.67 (15.665) %
- TETRAS Performance Subscale Total Score by Video Review, Percentage Change from Baseline in Tremor Amplitude, Median [2]: 3.53%
- TETRAS Upper Limb Score by Video Review, Change from Baseline, Mean (SD) [2]: 0.17 (1.211)
- TETRAS Upper Limb Score by Video Review, Change from Baseline, Median [2]: 0.00
- TETRAS Upper Limb Score by Video Review, Mean (SD) [2]: 10.08 (0.861)
- TETRAS Upper Limb Score by Video Review, Median [2]: 10.00
- TETRAS Upper Limb Score by Video Review, Percentage Change from Baseline in Tremor Amplitude, Mean (SD) [2]: 2.64 (20.424) %
- TETRAS Upper Limb Score by Video Review, Percentage Change from Baseline in Tremor Amplitude, Median [2]: 0.00%
- TETRAS Performance Subscale Total Score by Video Review, Mean (SD) [3]: 19.92 (5.229)
- TETRAS Performance Subscale Total Score by Video Review, Median [3]: 20.25
- TETRAS Upper Limb Score by Video Review, Mean (SD) [3]: 8.42 (2.417)
- TETRAS Upper Limb Score by Video Review, Median [3]: 9.25
- TETRAS Performance Subscale Total Score by Video Review, Change from Baseline, Mean (SD) [4]: −3.18 (3.133)
- TETRAS Performance Subscale Total Score by Video Review, Change from Baseline, Median [4]: −3.50
- TETRAS Performance Subscale Total Score by Video Review, Mean (SD) [4]: 20.32 (7.564)
- TETRAS Performance Subscale Total Score by Video Review, Median [4]: 20.00
- TETRAS Performance Subscale Total Score by Video Review, Percentage Change from Baseline in Tremor Amplitude, Mean (SD) [4]: −18.90 (18.026) %
- TETRAS Performance Subscale Total Score by Video Review, Percentage Change from Baseline in Tremor Amplitude, Median [4]: −22.26%
- TETRAS Upper Limb Score by Video Review, Change from Baseline, Mean (SD) [4]: −1.77 (1.633)
- TETRAS Upper Limb Score by Video Review, Change from Baseline, Median [4]: −1.50
- TETRAS Upper Limb Score by Video Review, Mean (SD) [4]: 8.95 (2.902)
- TETRAS Upper Limb Score by Video Review, Median [4]: 9.00
- TETRAS Upper Limb Score by Video Review, Percentage Change from Baseline in Tremor Amplitude, Mean (SD) [4]: −26.26 (22.691) %
- TETRAS Upper Limb Score by Video Review, Percentage Change from Baseline in Tremor Amplitude, Median [4]: −25.01%
- TETRAS Performance Subscale Total Score by Video Review, Change from Baseline, Mean (SD) [5]: −2.42 (3.484)
- TETRAS Performance Subscale Total Score by Video Review, Change from Baseline, Median [5]: −3.00
- TETRAS Performance Subscale Total Score by Video Review, Percentage Change from Baseline in Tremor Amplitude, Mean (SD) [5]: −14.27 (20.962) %
- TETRAS Performance Subscale Total Score by Video Review, Percentage Change from Baseline in Tremor Amplitude, Median [5]: −19.21%
- TETRAS Upper Limb Score by Video Review, Change from Baseline, Mean (SD) [5]: −1.50 (2.025)
- TETRAS Upper Limb Score by Video Review, Change from Baseline, Median [5]: −1.25
- TETRAS Upper Limb Score by Video Review, Percentage Change from Baseline in Tremor Amplitude, Mean (SD) [5]: −21.52 (28.723) %
- TETRAS Upper Limb Score by Video Review, Percentage Change from Baseline in Tremor Amplitude, Median [5]: −21.24%
- TETRAS Performance Subscale Total Score by Video Review, Change from Baseline, Mean (SD) [6]: −2.32 (2.272)
- TETRAS Performance Subscale Total Score by Video Review, Change from Baseline, Median [6]: −2.50
- TETRAS Performance Subscale Total Score by Video Review, Mean (SD) [6]: 21.18 (7.916)
- TETRAS Performance Subscale Total Score by Video Review, Median [6]: 19.50
- TETRAS Performance Subscale Total Score by Video Review, Percentage Change from Baseline in Tremor Amplitude, Mean (SD) [6]: −14.41 (13.541) %
- TETRAS Performance Subscale Total Score by Video Review, Percentage Change from Baseline in Tremor Amplitude, Median [6]: −16.46%
- TETRAS Upper Limb Score by Video Review, Change from Baseline, Mean (SD) [6]: −1.41 (1.429)
- TETRAS Upper Limb Score by Video Review, Change from Baseline, Median [6]: −1.00
- TETRAS Upper Limb Score by Video Review, Mean (SD) [6]: 9.32 (2.943)
- TETRAS Upper Limb Score by Video Review, Median [6]: 9.50
- TETRAS Upper Limb Score by Video Review, Percentage Change from Baseline in Tremor Amplitude, Mean (SD) [6]: −21.20 (19.707) %
- TETRAS Upper Limb Score by Video Review, Percentage Change from Baseline in Tremor Amplitude, Median [6]: −17.46%
- TETRAS Performance Subscale Total Score by Video Review, Change from Baseline, Mean (SD) [7]: −1.33 (2.338)
- TETRAS Performance Subscale Total Score by Video Review, Change from Baseline, Median [7]: −1.00
- TETRAS Performance Subscale Total Score by Video Review, Mean (SD) [7]: 21.00 (5.263)
- TETRAS Performance Subscale Total Score by Video Review, Median [7]: 22.25
- TETRAS Performance Subscale Total Score by Video Review, Percentage Change from Baseline in Tremor Amplitude, Mean (SD) [7]: −8.23 (14.278) %
- TETRAS Performance Subscale Total Score by Video Review, Percentage Change from Baseline in Tremor Amplitude, Median [7]: −6.88%
- TETRAS Upper Limb Score by Video Review, Change from Baseline, Mean (SD) [7]: −0.75 (0.935)
- TETRAS Upper Limb Score by Video Review, Change from Baseline, Median [7]: −0.50
- TETRAS Upper Limb Score by Video Review, Mean (SD) [7]: 9.17 (1.862)
- TETRAS Upper Limb Score by Video Review, Median [7]: 9.25
- TETRAS Upper Limb Score by Video Review, Percentage Change from Baseline in Tremor Amplitude, Mean (SD) [7]: −12.31 (14.247) %
- TETRAS Upper Limb Score by Video Review, Percentage Change from Baseline in Tremor Amplitude, Median [7]: −9.15%
- TETRAS Performance Subscale Total Score by Video Review, Change from Baseline, Mean (SD) [8]: −1.33 (4.771)
- TETRAS Performance Subscale Total Score by Video Review, Change from Baseline, Median [8]: −0.50
- TETRAS Performance Subscale Total Score by Video Review, Change from Randomization, Mean (SD) [8]: 1.08 (2.311)
- TETRAS Performance Subscale Total Score by Video Review, Change from Randomization, Median [8]: 0.75
- TETRAS Performance Subscale Total Score by Video Review, Mean (SD) [8]: 21.00 (6.542)
- TETRAS Performance Subscale Total Score by Video Review, Median [8]: 21.75
- TETRAS Performance Subscale Total Score by Video Review, Percentage Change from Baseline in Tremor Amplitude, Mean (SD) [8]: −6.83 (27.753) %
- TETRAS Performance Subscale Total Score by Video Review, Percentage Change from Baseline in Tremor Amplitude, Median [8]: −3.23%
- TETRAS Performance Subscale Total Score by Video Review, Percentage Change from Randomization in Tremor Amplitude, Mean (SD) [8]: 6.68 (14.469) %
- TETRAS Performance Subscale Total Score by Video Review, Percentage Change from Randomization in Tremor Amplitude, Median [8]: 5.12%
- TETRAS Upper Limb Score by Video Review, Change from Baseline, Mean (SD) [8]: −0.75 (2.115)
- TETRAS Upper Limb Score by Video Review, Change from Baseline, Median [8]: −0.25
- TETRAS Upper Limb Score by Video Review, Change from Randomization, Mean (SD) [8]: 0.75 (0.612)
- TETRAS Upper Limb Score by Video Review, Change from Randomization, Median [8]: 0.50
- TETRAS Upper Limb Score by Video Review, Mean (SD) [8]: 9.17 (2.658)
- TETRAS Upper Limb Score by Video Review, Median [8]: 10.00
- TETRAS Upper Limb Score by Video Review, Percentage Change from Baseline in Tremor Amplitude, Mean (SD) [8]: −10.13 (31.224) %
- TETRAS Upper Limb Score by Video Review, Percentage Change from Baseline in Tremor Amplitude, Median [8]: −4.57%
- TETRAS Upper Limb Score by Video Review, Percentage Change from Randomization in Tremor Amplitude, Mean (SD) [8]: 12.91 (10.020) %
- TETRAS Upper Limb Score by Video Review, Percentage Change from Randomization in Tremor Amplitude, Median [8]: 9.15%
- TETRAS Performance Subscale Total Score by Video Review, Change from Baseline, Mean (SD) [9]: 0.60 (2.104)
- TETRAS Performance Subscale Total Score by Video Review, Change from Baseline, Median [9]: 0.50
- TETRAS Performance Subscale Total Score by Video Review, Change from Randomization, Mean (SD) [9]: 3.60 (3.343)
- TETRAS Performance Subscale Total Score by Video Review, Change from Randomization, Median [9]: 4.50
- TETRAS Performance Subscale Total Score by Video Review, Mean (SD) [9]: 22.00 (4.962)
- TETRAS Performance Subscale Total Score by Video Review, Median [9]: 22.50
- TETRAS Performance Subscale Total Score by Video Review, Percentage Change from Baseline in Tremor Amplitude, Mean (SD) [9]: 3.98 (13.794) %
- TETRAS Performance Subscale Total Score by Video Review, Percentage Change from Baseline in Tremor Amplitude, Median [9]: 3.53%
- TETRAS Performance Subscale Total Score by Video Review, Percentage Change from Randomization in Tremor Amplitude, Mean (SD) [9]: 21.30 (20.204) %
- TETRAS Performance Subscale Total Score by Video Review, Percentage Change from Randomization in Tremor Amplitude, Median [9]: 27.66%
- TETRAS Upper Limb Score by Video Review, Change from Baseline, Mean (SD) [9]: 0.30 (0.908)
- TETRAS Upper Limb Score by Video Review, Change from Baseline, Median [9]: 0.50
- TETRAS Upper Limb Score by Video Review, Change from Randomization, Mean (SD) [9]: 1.80 (2.139)
- TETRAS Upper Limb Score by Video Review, Change from Randomization, Median [9]: 2.50
- TETRAS Upper Limb Score by Video Review, Mean (SD) [9]: 9.80 (1.924)
- TETRAS Upper Limb Score by Video Review, Median [9]: 9.50
- TETRAS Upper Limb Score by Video Review, Percentage Change from Baseline in Tremor Amplitude, Mean (SD) [9]: 5.17 (15.525) %
- TETRAS Upper Limb Score by Video Review, Percentage Change from Baseline in Tremor Amplitude, Median [9]: 9.15%
- TETRAS Upper Limb Score by Video Review, Percentage Change from Randomization in Tremor Amplitude, Mean (SD) [9]: 25.58 (31.214) %
- TETRAS Upper Limb Score by Video Review, Percentage Change from Randomization in Tremor Amplitude, Median [9]: 38.10%
